The record followed here is patent publication US20240000811A1, “INOSITOL HEXAKISPHOSPHATE ANALOGUES FOR TREATMENT OF CALCIFICATION ASSOCIATED KIDNEY DISEASES” (INOSITEC AG, priority 2020, published 2024).

Assay [1] in a line: In-solution screening: CaP precipitation and aggregation in artificial renal tubular fluid (RTF). The settings on record: 9 mM phosphate, 8 mM calcium, 4 h, RT. The protocol:
An artificial renal tubular fluid (RTF) with a final composition of 0.05 mM oxalate, 0.005 mM sulphate, 408 mM sodium, 424 mM chloride, 0.26 mM potassium, 4 mM magnesium and 0.2 mM citrate in double distilled water was prepared according to a literature report (Fasano, J. M. et al., Kidney Int. 59, 169-178. DOI: 10.1046/j.1523-1755.2001.00477.x, 2001). The solution was filtered with a 0.45-μm syringe filter. Twenty mM Bis-Tris buffer was added to the reported protocol to ensure pH stability throughout experiments and pH was set to 7.2. The artificial RTF was stored at room temperature for up to four months. Stock solutions of 0.25 M phosphate and 1 M calcium were prepared in double distilled water and were stored separately at −20° C.
Twenty-x final concentration phosphate, 20× final concentration calcium and 10× final concentration compound dilutions were prepared in RTF. Assay mixture consisting of 80% RTF, 10% compound dilution, 5% phosphate dilution and 5% calcium dilution was prepared in Eppendorf tubes as follows. RTF (320 μL) was mixed with 20 μL phosphate dilution (final concentration of 9 mM), 40 μL compound dilution and 20 μL calcium dilution (final concentration of 8 mM). The assay mixture was vortexed after adding each component and 380 μL of the mixture were immediately added to 8-well glass bottom slides and incubated for 4 hat RT. CaP precipitation was assessed using a Leica DM 6000B microscope (Leica Microsystems, Wetzlar, Germany) in brightfield mode. For quantification 3 wells/condition with 3-4 images/well were imaged with a 40× objective. The total area covered with CaP deposits in percentage of the field of view and the mean size of CaP aggregates were determined.
In a first step, the influence of selected IP6 analogues (FIG. 3) on CaP precipitation and growth was assessed in vitro using artificial renal tubular fluid (RTF) (Table 1). In a previous study, the inventors investigated CaP protein particle formation in serum. However, an important difference to cardiovascular calcification lies in the extremely low protein content of the renal tubular fluid vs. the high abundance of proteins in blood, which can stabilize amorphous particles. Two cut-offs were chosen for assessing efficacy. First, complete inhibition was defined as a >90% reduction of detected CaP precipitates compared to the control sample without compound.

In assay [2] the test system is RPTEC/TERT 1 human proximal tubule cells. The assay can be described thus: Imaging assay: CaP adhesion/deposition and cellular changes on RPTEC monolayers treated with 5/7 mM Ca/P. The settings on record: 7 mM phosphate, 5 mM calcium, 24 h. The assay is classed as cell-based. The protocol:
RPTEC/TERT 1 human proximal tubule cells (RPTEC) were cultured in T75 tissue culture flasks using ProxUp basal medium mixed with ProxUp supplements at 37° C. and 5% CO2 according to manufacturer's recommendations. Cells were used up to passage 30 and regularly tested for Mycoplasma infections. For experiments, RPTEC were cultured in 24-well plates at a seeding density of 150′000 cells/cm^2. Cell viability assessment and cell counting before seeding was performed using an automated cell counter (BioRad TC 20, Hercules, CA, USA).
For the comparison of selected IP6 analogues, ProxUp basal medium was prepared with the selected inhibitor and added to each well. Then, CaP precipitation was induced by direct addition of first, phosphate and second, calcium. Final concentrations of 7 mM phosphate and 5 mM calcium were used. Cells were incubated for 24 h at 37° C. and 5% CO2. Spiked medium was removed, and cells were washed twice with PBS before staining.
For staining, ProxUp basal medium was mixed with calcein (500 nM final concentration), EthD (6 μM final concentration), CellMask stain ([…]) and Hoechst 33342. Staining mixture was added to RPTEC and cells were incubated for 30 min in the dark at 37° C. and 5% CO2. Staining solution was removed, cells were washed with PBS once and ProxUp basal medium was added. Cells were immediately imaged after staining. Images were obtained by epifluorescence microscopy at 37° C., using a Leica CTR6000 microscope. For quantification 3 wells/condition were prepared and 3 images/well were taken. For preliminary adhesion experiments images were taken with a 10× objective, for the imaging assay 20× objective images were taken.
Multichannel images were saved as individual channel images in 8-bit tiff format. For analysis Hoechst channel images were thresholded using the triangle threshold. Touching nuclei of the binary image were further segmented using the watershed algorithm with the distance transform of the binary image as input and local maxima thereof as seeds.
For EthD channel images, high level of background noise was observed, potentially as a result of fluorescence of the CellMask stain bleeding through. […] A fixed minimum threshold was set at 60. Watershed segmentation similar to the Hoechst channel was performed to segment touching objects. For the calcein channel images adaptive thresholding by triangle thresholding achieved good detection of CaP deposits, which was validated by visual comparison to brightfield channel images. For compound experiments, an additional upper threshold was set to the minimum threshold of the pos.ctrl images for the respective experiment. Thereby an overly insensitive threshold in images with a high amount of CaP deposition was circumvented. The sum of foreground pixels of the binary image was used to calculate the total area of CaP deposits. The skimage label algorithm was used to label touching foreground regions.
To segment images to single cells the CellMask channel image was first binarized by adaptive thresholding, using a blocksize of 35, followed by median filtering. Binary erosion was performed to shrink the outlines. A version of watershed algorithm was used to segment the whole image into single cells. To this end, the distance transform of the binary erosion image was used as input image and seeds were set to the local maxima of the Hoechst channel image. While this protocol allowed for an approximation of single cell morphology, further improvements of both analytical and experimental staining procedure would be necessary to achieve more accurate results.
Additionally, texture features of calcein and CellMask channel images were extracted. Grey level co-occurrence matrices were calculated using one set offset of 5 pixel and an angle of 90°. Here, the use of larger offsets could improve the detection of changes in large-scale features, e.g. CaP clustering sites. […]

For the compound `COCCOCCO[C@@H]1[C@@H](OP(=O)(O)O)[C@H](OP(=O)(O)O)[C@@H](OP(=O)(O)O)[C@@H](OP(=O)(O)O)[C@H]1OP(=O)(O)O` [OEG2-IP5], in assay [1], the “concentration for complete inhibition of CaP precipitation (>90% reduction of detected CaP precipitates vs control)” value was 30 µM and the “concentration for inhibition of CaP aggregation (>50% reduction of mean size of aggregates vs control)” value was 1 µM. Besides, the “concentration achieving complete inhibition of CaP adhesion” value in assay [2] turned out to be 50 µM.

Consider `O=P(O)(O)O[C@H]1[C@H](OP(=O)(O)O)[C@@H](OP(=O)(O)O)[C@H](OP(=O)(O)O)[C@@H](OP(=O)(O)O)[C@H]1OP(=O)(O)O` [IP6, Phytic acid, reference compound], for which, in assay [1], the “concentration at which CaP precipitation was promoted” value is 10 µM.

Take `COCCOCCOCCOCCOCCOCCOCCOCCOCCOCCOCCO[C@@H]1[C@@H](OP(=O)(O)O)[C@H](OP(=O)(O)O)[C@@H](OP(=O)(O)O)[C@@H](OP(=O)(O)O)[C@H]1OP(=O)(O)O` [OEG11-IP5]: in assay [1], the “aggregation inhibitory concentration (>50% reduction of mean size of aggregates vs control)” value stood at 300 nM. The “concentration achieving complete inhibition of CaP adhesion” value in assay [2] turned out to be 50 µM.

As to `O=S(=O)(O)OC1C(OS(=O)(=O)O)C(OS(=O)(=O)O)C(OS(=O)(=O)O)C(OS(=O)(=O)O)C1OS(=O)(=O)O` (stereo not drawn) [IS6, myo-inositol hexasulfate, reference compound], the “effect on CaP precipitation / crystallization (in words)” value in assay [1] is recorded as “weak inhibitory properties”.

In the case of “cyclohexane hexacarboxylic acid [IC6, reference compound]”, the “effect on CaP precipitation / crystallization (in words)” value in assay [1] was “weak inhibitory properties”.

Consider `O=P(O)(O)OC1[C@@H](OP(=O)(O)O)[C@H](OP(=O)(O)O)C(O)[C@H](OP(=O)(O)O)[C@H]1OP(=O)(O)O` (stereo partly drawn) [IP5, myo-inositol pentakisphosphate, reference compound], for which, in assay [1], the “concentration at which CaP precipitation was promoted” value was 30 µM.
